For orientation: Inhibition means the percentage by which the read-out fell short of the control. A lower Inhibition goes with little suppression. In general, IC50 refers to the point on the concentration scale where inhibition reaches its midpoint.

We go through one compound from ChEMBL document CHEMBL1136091, “Borrelidin induces the transcription of amino acid biosynthetic enzymes via a GCN4-dependent pathway” (Bioorg Med Chem Lett, 2003).

Molecules are shown by their SMILES.

The test system of assay [1] is Saccharomyces cerevisiae. Kind of assay: Global transcription profiling experiment to examine the changes in the mRNA levels in the wt laboratory strain treated with the concentration of borrelidin ([…]) that inhibitedcontinued growth of wt yeast. Type of assay: functional.
The test system of assay [2] is Saccharomyces cerevisiae. The experiment in a line: Ability to inhibit cell proliferation of Saccharomyces cerevisiae strain BY4741. Type of assay: functional, organism-based.
Assay [3] has as its target Cyclin-dependent kinase 1 (Saccharomyces cerevisiae S288c, UniProt P00546). The experiment in a line: Inhibition of cyclin-dependent kinase activity of Cdc28p/CDK2p in Saccharomyces cerevisiae.

Sequence of Cyclin-dependent kinase 1 (P00546 whole entry): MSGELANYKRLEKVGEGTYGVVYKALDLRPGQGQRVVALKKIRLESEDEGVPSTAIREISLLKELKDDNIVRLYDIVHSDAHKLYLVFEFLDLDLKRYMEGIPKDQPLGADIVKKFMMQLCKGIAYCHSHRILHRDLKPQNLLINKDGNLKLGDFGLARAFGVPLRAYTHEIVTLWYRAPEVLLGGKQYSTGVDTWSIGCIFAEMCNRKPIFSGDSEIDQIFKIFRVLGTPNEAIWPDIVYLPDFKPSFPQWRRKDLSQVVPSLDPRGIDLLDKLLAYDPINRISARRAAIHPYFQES

For `C[C@@H]1C[C@H](C)C[C@H](C)[C@@H](O)CC(=O)O[C@H]([C@@H]2CCC[C@H]2C(=O)O)C/C=C/C=C(/C#N)[C@H](O)[C@@H](C)C1` [BORRELIDIN], the Inhibition in the assay on Saccharomyces cerevisiae [1] was found to be 75%. The IC50 in the assay with Saccharomyces cerevisiae [2] was 23 µM; in assay [3] it was 24 µM.
